Measurements reported in EP4711369A1, “1H-[1,2,3]TRIAZOLO[4,5-H]QUINAZOLINE COMPOUNDS AS PROTEIN KINASE INHIBITORS” (Chengdu Cynogen Bio-Pharmaceutical Technology Co., Ltd., priority 2023, dated 2024).

What was measured:
[1] = tested on: Human ovarian cancer OVCAR3 cells; experiment: Assay of cell proliferation (CellTiter-Glo); format: cell-based; conditions: Homo sapiens, OVCAR-3, 144 h, 6 days, read-out: OVCAR3 IC50 of cell proliferation inhibitory activity
How it was run: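 OVCAR3 cells, 2000/well in RPMI 1640 with 20% FBS, treated with nine 3-fold dilutions from 10 µM to 0.1 nM (0.5% DMSO) for 6 days at 37 °C. Viability by CellTiter-Glo luminescence; IC50 by four-parameter fit.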

[2] = tested on: human breast cancer HCC1806 cells; experiment: Assay of cell proliferation (CellTiter-Glo); format: cell-based; conditions: Homo sapiens, 144 h, 6 days, read-out: HCC1806 IC50 of cell proliferation inhibitory activity
How it was run: (§1)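 Cells seeded per line at growth-adapted densities, treated 6 days at 37 °C/5% CO2 with nine 3-fold dilutions (10 µM to 0.1 nM final, 0.5% DMSO). Viability by CellTiter-Glo luminescence; IC50 from four-parameter fit.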

[3] = tested on: human colon cancer HCT-116 cells; experiment: Assay of cell proliferation (CellTiter-Glo); format: cell-based; conditions: 144 h, 6 days, read-out: HCT-116 IC50 of cell proliferation inhibitory activity
How it was run: as §1

[4] = tested on: human gastric cancer MKN1 cells; experiment: Assay of cell proliferation (CellTiter-Glo); format: cell-based; conditions: Homo sapiens, MKN-1, 144 h; MNK1, 6 days; read-out: MKN1 IC50 of cell proliferation inhibitory activity
How it was run: as §1

[5] = target: CDK4/cyclin D1 (Homo sapiens, UniProt P11802); experiment: Assay of kinase activity (ADP-Glo); format: biochemical; conditions: kinase inhibitory activity
CDK4/cyclin D1, sequence (P11802 whole entry, species assumed): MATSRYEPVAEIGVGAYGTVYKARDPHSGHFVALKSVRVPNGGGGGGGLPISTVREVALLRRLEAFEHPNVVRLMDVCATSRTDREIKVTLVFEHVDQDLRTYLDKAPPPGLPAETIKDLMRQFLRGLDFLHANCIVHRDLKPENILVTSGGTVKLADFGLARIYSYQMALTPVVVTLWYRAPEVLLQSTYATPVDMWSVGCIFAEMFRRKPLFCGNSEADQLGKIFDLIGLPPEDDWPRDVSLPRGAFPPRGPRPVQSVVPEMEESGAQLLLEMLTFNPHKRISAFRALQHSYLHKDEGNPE
CDK4/cyclin D1, sequence (P24385 whole entry partner, species assumed): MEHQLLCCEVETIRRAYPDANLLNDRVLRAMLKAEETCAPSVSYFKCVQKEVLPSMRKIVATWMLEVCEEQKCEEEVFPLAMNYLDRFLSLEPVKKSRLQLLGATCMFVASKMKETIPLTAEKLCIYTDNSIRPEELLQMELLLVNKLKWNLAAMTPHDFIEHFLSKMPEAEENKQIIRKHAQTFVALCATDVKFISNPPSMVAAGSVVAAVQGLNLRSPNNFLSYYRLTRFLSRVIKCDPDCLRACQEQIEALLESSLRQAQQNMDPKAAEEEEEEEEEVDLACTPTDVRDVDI
How it was run: (§2)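 Kinase preincubated 10 min with compound in 50 mM Hepes, 10 mM MgCl2, 0.01% Brij35, 2 mM DTT, then substrate/ATP added for 60 min at 25 °C. ADP formed measured by ADP-Glo luminescence; IC50 by nonlinear concentration-response fitting.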

[6] = target: CDK2/cyclin E (Homo sapiens, UniProt P24941); experiment: Assay of kinase activity (ADP-Glo); format: biochemical; conditions: kinase inhibitory activity, read-out: CDK2/E1 IC50
How it was run: as §2

[7] = target: CDK9/cyclin T1 (Homo sapiens, UniProt P50750); experiment: Assay of kinase activity (ADP-Glo); format: biochemical; conditions: kinase inhibitory activity
CDK9/cyclin T1, sequence (P50750 whole entry, species assumed): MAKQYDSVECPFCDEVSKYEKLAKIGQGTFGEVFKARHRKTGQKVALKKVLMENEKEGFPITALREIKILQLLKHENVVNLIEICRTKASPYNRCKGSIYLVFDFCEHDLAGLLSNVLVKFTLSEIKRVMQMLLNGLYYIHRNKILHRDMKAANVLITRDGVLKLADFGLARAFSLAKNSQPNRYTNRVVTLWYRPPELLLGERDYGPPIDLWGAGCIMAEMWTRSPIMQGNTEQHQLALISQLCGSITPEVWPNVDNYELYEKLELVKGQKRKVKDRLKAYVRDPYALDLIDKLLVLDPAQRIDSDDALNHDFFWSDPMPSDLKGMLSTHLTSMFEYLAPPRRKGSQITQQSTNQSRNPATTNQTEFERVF
CDK9/cyclin T1, sequence (O60563 whole entry partner, species assumed): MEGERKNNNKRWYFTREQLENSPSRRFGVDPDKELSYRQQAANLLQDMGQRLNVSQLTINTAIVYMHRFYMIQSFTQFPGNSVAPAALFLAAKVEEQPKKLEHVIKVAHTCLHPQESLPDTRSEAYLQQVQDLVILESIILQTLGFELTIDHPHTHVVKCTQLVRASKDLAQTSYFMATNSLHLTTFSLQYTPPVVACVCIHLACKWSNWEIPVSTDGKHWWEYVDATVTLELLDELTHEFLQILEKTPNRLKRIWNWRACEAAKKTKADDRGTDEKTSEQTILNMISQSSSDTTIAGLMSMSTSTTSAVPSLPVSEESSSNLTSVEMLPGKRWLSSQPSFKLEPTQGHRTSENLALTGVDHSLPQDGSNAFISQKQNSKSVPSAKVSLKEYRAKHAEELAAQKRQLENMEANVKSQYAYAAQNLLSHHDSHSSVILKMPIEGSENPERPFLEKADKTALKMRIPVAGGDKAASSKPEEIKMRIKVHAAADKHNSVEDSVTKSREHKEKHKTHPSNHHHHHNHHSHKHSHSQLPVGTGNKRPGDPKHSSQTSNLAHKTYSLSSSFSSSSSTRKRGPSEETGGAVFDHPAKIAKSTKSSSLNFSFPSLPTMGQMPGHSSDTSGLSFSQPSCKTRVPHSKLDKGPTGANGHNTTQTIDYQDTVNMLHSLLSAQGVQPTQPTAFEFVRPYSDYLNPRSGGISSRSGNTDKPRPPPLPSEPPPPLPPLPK
How it was run: (§3)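 Human CDK6/cyclin D3 and CDK9/cyclin T1 preincubated 10 min at 25 °C with compound in 50 mM Hepes, 10 mM MgCl2, 0.01% Brij35, 2 mM DTT, then reacted 60 min at 25 °C with substrate and ATP. ADP formed measured by ADP-Glo luminescence; IC50 from nonlinear concentration-response fitting.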

[8] = target: CDK6/cyclin D3 (Homo sapiens, UniProt Q00534); experiment: Assay of kinase activity (ADP-Glo); format: biochemical; conditions: kinase inhibitory activity
CDK6/cyclin D3, sequence (Q00534 whole entry, species assumed): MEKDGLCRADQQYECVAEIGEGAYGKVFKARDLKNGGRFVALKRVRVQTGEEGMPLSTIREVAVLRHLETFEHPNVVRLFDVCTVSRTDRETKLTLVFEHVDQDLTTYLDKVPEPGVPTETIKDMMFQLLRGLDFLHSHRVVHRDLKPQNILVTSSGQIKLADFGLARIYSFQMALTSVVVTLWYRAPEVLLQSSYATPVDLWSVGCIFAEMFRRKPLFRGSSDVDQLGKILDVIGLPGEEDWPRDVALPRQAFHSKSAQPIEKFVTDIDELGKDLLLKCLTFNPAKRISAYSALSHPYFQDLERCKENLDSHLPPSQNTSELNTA
CDK6/cyclin D3, sequence (P30281 whole entry partner, species assumed): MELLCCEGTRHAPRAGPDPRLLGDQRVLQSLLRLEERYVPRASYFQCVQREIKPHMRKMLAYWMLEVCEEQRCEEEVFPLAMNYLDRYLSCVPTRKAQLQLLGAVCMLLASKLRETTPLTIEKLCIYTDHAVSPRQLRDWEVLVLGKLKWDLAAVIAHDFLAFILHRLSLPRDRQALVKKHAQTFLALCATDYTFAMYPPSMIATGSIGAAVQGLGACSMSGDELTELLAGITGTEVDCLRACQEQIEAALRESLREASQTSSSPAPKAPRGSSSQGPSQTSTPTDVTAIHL
How it was run: as §3

[9] = tested on: human acute myeloid leukemia MV-4-11 cells; experiment: Assay of cell proliferation (CellTiter-Glo); format: cell-based; conditions: MV4-11, 144 h, 6 days, read-out: MV-4-11 IC50 of cell proliferation inhibitory activity
How it was run: as §1

[10] = tested on: human breast cancer MCF-7 cells; experiment: Assay of cell proliferation (CellTiter-Glo); format: cell-based; conditions: 144 h, MCF7 cells, 6 days, read-out: MCF7 IC50 of cell proliferation inhibitory activity
How it was run: as §1

Row | SMILES | IC50 [1] [nM] | IC50 [2] [nM] | IC50 [3] [nM] | IC50 [4] [nM] | IC50 [5] [nM] | IC50 [6] [nM] | IC50 [7] [nM] | IC50 [8] [nM] | IC50 [9] [nM] | IC50 [10] [nM]
1 | CC(C)n1nnc2ccc3cnc(Nc4ccc(C(=O)N5CCC(O)C5)cc4)nc3c21 (stereo not drawn) [Example I-3, (3-Hydroxypyrrolidin-1-yl)(4-((1-isopropyl-1H-[1,2,3]triazolo[4,5-H]quinazolin-8-yl)amino)phenyl)methanone] | 203 | 302 | 94 | 196 | 1 | 0.4 | 6 | 4 | – | –
2 | CC(C)n1nnc2ccc3cnc(Nc4ccc(C(=O)N5CC[C@H](N)C5)cc4)nc3c21 [Example I-4, (S)-(3-Aminopyrrolidin-1-yl)(4-((1-isopropyl-1H-[1,2,3]triazolo[4,5-H]quinazolin-8-yl)amino)phenyl)methanone] | 12 | 24 | 25 | 8 | 0.5 | 0.08 | 5 | 8 | 3 | 18
3 | CN[C@@H]1CCN(C(=O)c2ccc(Nc3ncc4ccc5nnn(C(C)C)c5c4n3)cc2)C1 [Example I-7, (R)-(4-((1-Isopropyl-1H-[1,2,3]triazolo[4,5-H]quinazolin-8-yl)amino)phenyl)(3-(methylamino)pyrrolidin-1-yl)methanone] | 14 | 20 | 11 | 16 | 0.8 | 0.1 | 3 | 3 | 5 | 8
4 | CC(C)n1nnc2ccc3cnc(Nc4ccc(C(=O)N5CCNCC5)c(F)c4)nc3c21 [Example I-19, (2-Fluoro-4-((1-isopropyl-1H-[1,2,3]triazolo[4,5-H]quinazolin-8-yl)amino)phenyl)(piperazin-1-yl)methanone] | 49 | 379 | 21 | 85 | 2 | 1 | 8 | 12 | 10 | 42
5 | CC(C)n1nnc2ccc3cnc(Nc4ccc(C(=O)N5CCOCC5)cc4)nc3c21 [Example I-35, (4-((1-Isopropyl-1H-[1,2,3]triazolo[4,5-H]quinazolin-8-yl)amino)phenyl)(morpholino)methanone] | 224 | 233 | 95 | 21 | 2 | 0.7 | 6 | 12 | 16 | 162
6 | CC(C)n1nnc2ccc3cnc(Nc4ccc(C(=O)N5CCC(O)CC5)cc4)nc3c21 [Example I-36, (4-Hydroxypiperidin-1-yl)(4-((1-isopropyl-1H-[1,2,3]triazolo[4,5-H]quinazolin-8-yl)amino)phenyl)metha none] | 140 | 403 | 80 | 28 | 4 | 0.8 | 11 | 16 | 15 | 167
7 | CC(C)n1nnc2ccc3cnc(Nc4ccc(C(=O)N5CCC(F)(F)CC5)cc4)nc3c21 [Example I-37, (4,4-Difluoropiperidin-1-yl)(4-((1-isopropyl-1H-[1,2,3]triazolo[4,5-H]quinazolin-8-yl)amino)phenyl)metha none] | 372 | 832 | 136 | 58 | 3 | 0.8 | 10 | 11 | 20 | 239
8 | CC(C)N[C@H]1CCN(C(=O)c2ccc(Nc3ncc4ccc5nnn([C@@H]6CCC[C@@]6(C)O)c5c4n3)cc2)C1 [Example I-63, (4-((1-((1R,2R)-2-Hydroxy-2-methylcyclopentyl)-1H-[1,2,3]triazolo[4,5-H]quinazolin-8-yl)amino)phenyl)((S)-3-(isopropylamino)pyrrolidin-1-yl)methanone] | 6 | 15 | – | 1 | 0.6 | 0.08 | 3 | 3 | 1 | –
9 | CN(C)[C@H]1CCN(C(=O)c2ccc(Nc3ncc4ccc5nnn([C@@H]6CCC[C@@]6(C)O)c5c4n3)cc2)C1 [Example I-64, ((S)-3-(Dimethylamino)pyrrolidin-1-yl)(4-((1-((1R,2R)-2-hydroxy-2-methylcyclopentyl)-1H-[1,2,3]triazolo[4,5-H]quinazolin-8-yl)amino)phenyl)methanone] | 7 | 12 | – | 3 | 0.6 | 0.1 | 3 | 4 | 2 | –
10 | C[C@@]1(O)CCC[C@H]1n1nnc2ccc3cnc(Nc4ccc(C(=O)N5CCNCC5)cc4)nc3c21 [Example I-65] | 35 | 111 | – | 8 | 0.6 | 0.6 | 3 | 3 | 5 | –
11 | CN1CCN(C(=O)c2ccc(Nc3ncc4ccc5nnn([C@@H]6CCC[C@@]6(C)O)c5c4n3)cc2)CC1 [Example I-66, (4-((1-((1R,2R)-2-Hydroxy-2-methylcyclopentyl)-1H-[1,2,3]triazolo[4,5-H]quinazolin-8-yl)amino)phenyl)(4-methylpiperazin-1-yl)methanone] | 17 | 93 | – | 8 | 1 | 0.8 | 6 | 15 | 2 | –
12 | C[C@@]1(O)CCC[C@H]1n1nnc2ccc3cnc(Nc4ccc(C(=O)N5CCOCC5)cc4)nc3c21 [Example I-67, (4-((1-((1R,2R)-2-Hydroxy-2-methylcyclopentyl)-1H-[1,2,3]triazolo[4,5-H]quinazolin-8-yl)amino)phenyl)(morpholino)methanone] | 45 | 137 | – | 13 | 2 | 1 | 46 | 21 | 5 | –
13 | C[C@@]1(O)CCC[C@H]1n1nnc2ccc3cnc(Nc4ccc(C(=O)N5CCS(=O)(=O)CC5)cc4)nc3c21 [Example I-68, (1,1-Dioxothiomorpholino)(4-((1-((1R,2R)-2-hydroxy-2-methylcyclopentyl)-1H-[1,2,3]triazolo[4,5-H]quinazolin-8-yl)amino)phenyl)methanone] | 181 | 121 | – | 62 | 2 | 1 | 112 | 34 | 8 | –
14 | C[C@@]1(O)CCC[C@H]1n1nnc2ccc3cnc(Nc4ccc(C(=O)N5CCCNCC5)cc4)nc3c21 [Example I-69, (1,4-diazepan-1-yl)(4-((1-((1R,2R)-2-hydroxy-2-methylcyclopentyl)-1H-[1,2,3]triazolo[4,5-H]quinazolin-8-yl)amino)phenyl)methanone] | 15 | 20 | – | 6 | 0.5 | 0.05 | 2 | 3 | 3 | –
15 | CN1CCCN(C(=O)c2ccc(Nc3ncc4ccc5nnn([C@@H]6CCC[C@@]6(C)O)c5c4n3)cc2)CC1 [Example I-70, (4-((1-((1,2R)-2-hydroxy-2-methylcyclopentyl)-1H-[1,2,3]triazolo[4,5-H]quinazolin-8-yl)amino)phenyl)(4-methyl-1,4-diazepan-1-yl)methanone] | 2 | 3 | – | 1 | 0.7 | 0.06 | 2 | 2 | 1 | –
16 | C[C@@]1(O)CCC[C@H]1n1nnc2ccc3cnc(Nc4ccc(S(=O)(=O)NCCO)cc4)nc3c21 [Example I-71] | 5 | 18 | – | 3 | 1 | 0.9 | 9 | 6 | 2 | –
17 | CC1(O)CCCC1n1c(=O)c(C(F)F)cc2cnc(NC3CCN(S(C)(=O)=O)CC3)nc21 (stereo not drawn) [PF06873600 (Ebvaciclib), reference compound] | 118 | 481 | 69 | 77 | – | – | 452 | – | 100 | 24
